Literature values in patent US20230130225A1, “METHOD OF TREATING AMYOTROPHIC LATERAL SCLEROSIS WITH MYELOPEROXIDASE INHIBITOR” (Biohaven Therapeutics Ltd., priority 2020, published 2023).
Read-outs that look alike come from different tables or passages of the source.

Experiments:
MPO = target: T1, MPO (Homo sapiens, UniProt P05164); conditions: 600 mg BID, Phase 2 studies
T1 construct: from tissue; host or cells: plasma of clinical study participants

[1] = healthy subjects, multiple dosages of up to 900 mg BID
TSPO = conditions: 600 mg BID, Phase 2 studies
[2] = participants with Parkinson's disease and MSA, dosages of up to 600 mg BID for 8-12 weeks
[3] = subjects with MSA, 12 weeks, 600 mg BID

T1 sequence (P05164 279-745 limits assumed): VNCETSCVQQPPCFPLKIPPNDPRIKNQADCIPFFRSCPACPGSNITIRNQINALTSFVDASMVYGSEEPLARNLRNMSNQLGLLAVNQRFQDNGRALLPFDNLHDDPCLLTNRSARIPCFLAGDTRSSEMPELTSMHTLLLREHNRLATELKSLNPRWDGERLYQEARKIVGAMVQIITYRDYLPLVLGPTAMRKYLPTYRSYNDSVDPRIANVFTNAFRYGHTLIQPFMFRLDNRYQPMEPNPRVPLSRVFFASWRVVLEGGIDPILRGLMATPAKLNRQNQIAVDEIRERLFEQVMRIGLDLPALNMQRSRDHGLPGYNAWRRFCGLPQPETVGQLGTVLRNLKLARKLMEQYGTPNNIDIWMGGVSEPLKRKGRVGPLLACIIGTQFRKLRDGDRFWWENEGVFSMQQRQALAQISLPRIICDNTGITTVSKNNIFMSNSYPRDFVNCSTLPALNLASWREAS
T1 sequence (P05164 165-273 limits assumed): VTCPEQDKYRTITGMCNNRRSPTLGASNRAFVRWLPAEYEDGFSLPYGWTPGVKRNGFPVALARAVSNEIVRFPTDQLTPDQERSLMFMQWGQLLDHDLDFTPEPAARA

SMILES: CC(C)OCCn1c(=S)[nH]c(=O)c2[nH]ccc21 [verdiperstat, 1-(2-isopropoxyethyl)-2-thioxo-1,2,3,5-tetrahydro-pyrrolo[3,2-d]pyrimidin-4-one]
- MPO activity in plasma (MPO): decreased
- safety and tolerability [1]: generally safe and well tolerated
- TSPO binding on brain PET imaging (microglial activation/neuroinflammation) (TSPO): reduced
- safety and tolerability [2]: generally safe and well tolerated
- trends on clinical efficacy measures [3]: favorable, dose-dependent trends
